This passage reports IC50 results from patent US9828369B2, “Isoquinoline derivatives useful as inhibitors of diacylglyceride O-acyltransferase 2” (Merck Sharp & Dohme Corp., priority 2014, dated 2017).

The assay deals with hDGAT2 (Homo sapiens (Human), UniProt Q96PD7). Kind of assay: DGAT2 enzymatic activity assay (triolein formation, LC/MS/MS). The settings on record: read-out: IC50 values for inhibition of DGAT2; membrane prep of Sf-9 cells expressing hDGAT2; 25 μM diolein, 10 μM oleoyl-CoA; room temperature; triolein by LC/MS/MS.
Chain of hDGAT2 (Q96PD7 whole entry): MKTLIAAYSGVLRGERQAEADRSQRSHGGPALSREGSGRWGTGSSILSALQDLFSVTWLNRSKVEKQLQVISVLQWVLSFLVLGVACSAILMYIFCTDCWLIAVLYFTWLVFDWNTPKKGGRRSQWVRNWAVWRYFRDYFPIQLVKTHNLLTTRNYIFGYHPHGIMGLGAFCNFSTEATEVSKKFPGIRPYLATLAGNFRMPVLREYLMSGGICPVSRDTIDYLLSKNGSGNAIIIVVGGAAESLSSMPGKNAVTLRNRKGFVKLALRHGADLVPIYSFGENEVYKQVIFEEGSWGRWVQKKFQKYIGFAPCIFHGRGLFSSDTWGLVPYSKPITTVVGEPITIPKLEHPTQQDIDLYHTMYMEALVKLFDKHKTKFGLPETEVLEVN
As for `COc1cccc(-c2ccc(CNC(=O)c3ccn(-c4ccccc4)n3)c3cnccc23)c1` [Example 74, N-((5-(3-methoxyphenyl)isoquinolin-8-yl)methyl)-1-phenyl-1H-pyrazole-3-carboxamide], the IC50 stood at 1.27 µM. The figure for `COc1cccc(-c2ccc(CNC(=O)c3cnc(-c4ccccc4)cn3)c3cnccc23)c1` [Example 75, N-((5-(3-methoxyphenyl)isoquinolin-8-yl)methyl)-5-phenylpyrazine-2-carboxamide] is 9.05 µM; for `COc1cccc(-c2ccc(CNC(=O)c3ccc(-c4ccon4)cc3)c3cnccc23)c1` [Example 76, 4-(isoxazol-3-yl)-N-((5-(3-methoxyphenyl)isoquinolin-8-yl)methyl)benzamide] it is 4.46 µM. Take `COc1cccc(-c2ccc(CNC(=O)c3ccncc3-c3ccccc3)c3cnccc23)c1` [Example 77, N-((5-(3-methoxyphenyl)isoquinolin-8-yl)methyl)-3-phenylisonicotinamide]: the IC50 was determined as 1.22 µM. Then `COc1cccc(-c2ccc(CNC(=O)c3csc(-c4ccc(C(F)(F)F)cc4)n3)c3cnccc23)c1` [Example 78, N-((5-(3-methoxyphenyl)isoquinolin-8-yl)methyl)-2-(4-(trifluoromethyl)phenyl)thiazole-4-carboxamide], with 1.25 µM. Regarding `COc1cccc(-c2ccc(CNC(=O)c3cnn(-c4ccccc4)c3)c3cnccc23)c1` [Example 79, N-((5-(3-methoxyphenyl)isoquinolin-8-yl)methyl)-1-phenyl-1H-pyrazole-4-carboxamide], the IC50 came to 8.49 µM. The figure for `COc1cccc(-c2ccc(CNC(=O)c3cc(-c4ccccc4)no3)c3cnccc23)c1` [Example 80, N-((5-(3-methoxyphenyl)isoquinolin-8-yl)methyl)-3-phenylisoxazole-5-carboxamide] is 2.41 µM; for `COc1cccc(-c2ccc(CNC(=O)Cc3nnc(-c4ccccc4)[nH]3)c3cnccc23)c1` [Example 81, N-((5-(3-methoxyphenyl)isoquinolin-8-yl)methyl)-2-(5-phenyl-4H-1,2,4-triazol-3-yl)acetamide] it is 0.483 µM; for `COc1cccc(-c2ccc(CNC(=O)c3ccc(-c4ccccc4O)cc3)c3cnccc23)c1` [Example 82, 2′-hydroxy-N-((5-(3-methoxyphenyl)isoquinolin-8-yl)methyl)-[1,1′-biphenyl]-4-carboxamide] it is 0.602 µM. Then `COc1cccc(-c2ccc(CNC(=O)c3ccc(-c4ccccc4)o3)c3cnccc23)c1` [Example 83, N-((5-(3-methoxyphenyl)isoquinolin-8-yl)methyl)-5-phenylfuran-2-carboxamide], with 1.45 µM. Consider `COc1cccc(-c2ccc(CNC(=O)c3ccc(N4CCCCC4)cc3)c3cnccc23)c1` [Example 84, N-((5-(3-methoxyphenyl)isoquinolin-8-yl)methyl)-4-(piperidin-1-yl)benzamide], for which the IC50 amounted to 0.988 µM. The figure for `COc1cccc(-c2ccc(CNC(=O)c3cc(-c4ccccc4)nn3-c3ccccc3)c3cnccc23)c1` [Example 85, N-((5-(3-methoxyphenyl)isoquinolin-8-yl)methyl)-1,3-diphenyl-1H-pyrazole-5-carboxamide] is 3.58 µM. As to `COc1cccc(-c2ccc(CNC(=O)c3ccc(-c4ccc(F)cc4)cc3)c3cnccc23)c1` [Example 86, 4′-fluoro-N-((5-(3-methoxyphenyl)isoquinolin-8-yl)methyl)-[1,1′-biphenyl]-4-carboxamide], the IC50 worked out at 1.41 µM. Take `COc1cccc(-c2ccc(CNC(=O)c3cccc(-c4cccc(F)c4)c3)c3cnccc23)c1` [Example 87, 3′-fluoro-N-((5-(3-methoxyphenyl)isoquinolin-8-yl)methyl)-[1,1′-biphenyl]-3-carboxamide]: the IC50 stood at 1.2 µM.

With `COc1cccc(-c2ccc(CNC(=O)c3ccc(-c4cccc(F)c4)cc3)c3cnccc23)c1` [Example 88, 3′-fluoro-N-((5-(3-methoxyphenyl)isoquinolin-8-yl)methyl)-[1,1′-biphenyl]-4-carboxamide], the IC50 came to 1.56 µM.

For the compound `COc1cccc(-c2ccc(CNC(=O)Cc3nc(-c4ccccc4)cs3)c3cnccc23)c1` [Example 89, N-((5-(3-methoxyphenyl)isoquinolin-8-yl)methyl)-2-(4-phenylthiazol-2-yl)acetamide], the IC50 was 2.23 µM. For the compound `COc1cccc(-c2ccc(CNC(=O)c3ccccc3-n3cnnn3)c3cnccc23)c1` [Example 90, N-((5-(3-methoxyphenyl)isoquinolin-8-yl)methyl)-2-(1H-tetrazol-1-yl)benzamide], the 50% inhibitory concentration (IC50) was 0.902 µM. The figure for `COc1cccc(-c2ccc(CNC(=O)c3cccc(-n4cnnn4)c3)c3cnccc23)c1` [Example 91, N-((5-(3-methoxyphenyl)isoquinolin-8-yl)methyl)-3-(1H-tetrazol-1-yl)benzamide] is 0.889 µM. For the compound `COc1cccc(-c2ccc(CNC(=O)c3cccc4cnccc34)c3cnccc23)c1` [Example 92, N-((5-(3-methoxyphenyl)isoquinolin-8-yl)methyl)isoquinoline-5-carboxamide], the IC50 is 1.76 µM. Turning to `COc1cccc(-c2ccc(CNC(=O)CN3CCN(c4ccccc4)CC3)c3cnccc23)c1` [Example 93, N-((5-(3-methoxyphenyl)isoquinolin-8-yl)methyl)-2-(4-phenylpiperazin-1-yl)acetamide], the IC50 worked out at 6.67 µM.

For `COc1cccc(-c2ccc(CNC(=O)CCc3cnn(C)c3)c3cnccc23)c1` [Example 94, N-((5-(3-methoxyphenyl)isoquinolin-8-yl)methyl)-3-(1-methyl-1H-pyrazol-4-yl)propanamide], the IC50 stood at 0.305 µM. Then `COc1cccc(-c2ccc(CNC(=O)CC3(c4ccccc4)CCN(C(=O)OC(C)(C)C)C3)c3cnccc23)c1` (stereo not shown) [Example 95, tert-butyl 3-(2-(((5-(3-methoxyphenyl)isoquinolin-8-yl)methyl)amino)-2-oxoethyl)-3-phenylpyrrolidine-1-carboxylate], with 1.31 µM; and `COc1cccc(-c2ccc(CNC(=O)C3CCC(c4ccccc4)=N3)c3cnccc23)c1` (stereo not shown) [Example 96, N-((5-(3-methoxyphenyl)isoquinolin-8-yl)methyl)-5-phenyl-3,4-dihydro-2H-pyrrole-2-carboxamide], with 8 µM.

For `COc1cccc(-c2ccc(CNC(=O)C3CC3c3ccc(Cl)cc3)c3cnccc23)c1` (stereo not shown) [Example 97, 2-(4-chlorophenyl)-N-((5-(3 methoxyphenyl)isoquinolin-8-yl)methyl)cyclopropanecarboxamide], the IC50 came to 0.597 µM. Take `COc1cccc(-c2ccc(CNC(=O)C3CC34CCCC4)c3cnccc23)c1` (stereo not shown) [Example 98, N-((5-(3-methoxyphenyl)isoquinolin-8-yl)methyl)spiro[2.4]heptane-1-carboxamide]: the IC50 was 7.4 µM. The figure for `COc1cccc(-c2ccc(CNC(=O)C3CC34CCCCC4)c3cnccc23)c1` (stereo not shown) [Example 100, N-((5-(3-methoxyphenyl)isoquinolin-8-yl)methyl)spiro[2.5]octane-1-carboxamide] is 0.243 µM; for `COc1cccc(-c2ccc(CNC(=O)C3CC3c3ccccc3Br)c3cnccc23)c1` (stereo not shown) [Example 101, 2-(2-bromophenyl)-N-((5-(3-methoxyphenyl)isoquinolin-8-yl)methyl)cyclopropanecarboxamide] it is 0.915 µM; for `COc1cccc(-c2ccc(CNC(=O)C3CC3c3ccc(F)cc3)c3cnccc23)c1` (stereo not shown) [Example 102, 2-(4-fluorophenyl)-N-((5-(3-methoxyphenyl)isoquinolin-8-yl)methyl)cyclopropanecarboxamide] it is 0.178 µM. Turning to `COc1cccc(-c2ccc(CNC(=O)C3(S(=O)(=O)c4ccc(Cl)cc4)CC3)c3cnccc23)c1` [Example 103, 1-((4-chlorophenyl)sulfonyl)-N-((5-(3-methoxyphenyl)isoquinolin-8-yl)methyl)cyclopropanecarboxamide], the IC50 was determined as 1.18 µM. As to `COc1cccc(-c2ccc(CNC(=O)C3CC3c3cccnc3)c3cnccc23)c1` (stereo not shown) [Example 104, N-((5-(3-methoxyphenyl)isoquinolin-8-yl)methyl)-2-(pyridin-3-yl)cyclopropanecarboxamide], the IC50 stood at 0.483 µM. The figure for `COc1cccc(-c2ccc(CNC(=O)C3CC3c3ccccn3)c3cnccc23)c1` (stereo not shown) [Example 105, N-((5-(3-methoxyphenyl)isoquinolin-8-yl)methyl)-2-(pyridin-2-yl)cyclopropanecarboxamide] is 7.45 µM. With `COc1ccc(C2CC2C(=O)NCc2ccc(-c3cccc(OC)c3)c3ccncc23)cc1` (stereo not shown) [Example 106, 2-(4-methoxyphenyl)-N-((5-(3-methoxyphenyl)isoquinolin-8-yl)methyl)cyclopropanecarboxamide], the IC50 was 0.537 µM. `COc1cccc(-c2ccc(CNC(=O)C3CC3c3cccc(OC)c3)c3cnccc23)c1` (stereo not shown) [Example 107, 2-(3-methoxyphenyl)-N-((5-(3-methoxyphenyl)isoquinolin-8-yl)methyl)cyclopropanecarboxamide]: the IC50 came out at 1.18 µM. The figure for `COc1cccc(-c2ccc(CNC(=O)C3CC3(F)c3ccccc3)c3cnccc23)c1` (stereo not shown) [Example 109, 2-fluoro-N-((5-(3-methoxyphenyl)isoquinolin-8-yl)methyl)-2-phenylcyclopropanecarboxamide] is 0.696 µM; for `COc1cccc(-c2ccc(CNC(=O)c3n[nH]c(=O)c4ccccc34)c3cnccc23)c1` [Example 110, N-((5-(3-methoxyphenyl)isoquinolin-8-yl)methyl)-4-oxo-3,4-dihydrophthalazine-1-carboxamide] it is 0.544 µM. Then `COc1cccc(-c2ccc(CNC(=O)C(C)(C)Oc3ccc(C(F)(F)F)cc3)c3cnccc23)c1` [Example 111, N-((5-(3-methoxyphenyl)isoquinolin-8-yl)methyl)-2-methyl-2-(4-(trifluoromethyl)phenoxy)propanamide], with 1.23 µM; and `COc1cccc(-c2ccc(CNC(=O)C(C)(C)Oc3ccc(C(F)(F)F)cn3)c3cnccc23)c1` [Example 112, N-((5-(3-methoxyphenyl)isoquinolin-8-yl)methyl)-2-methyl-2-((5-(trifluoromethyl)pyridin-2-yl)oxy)propanamide], with 1.16 µM.

A word on the IC50: it is the concentration that gives 50% inhibition.
